# Experimental data from patent US5501976A, “Methods and compositions for the control of the flesh fly” (The University of Florida, priority 1995, dated 1996).
# “And” between values parts separate entries of the source, which are not always exact repeats. Equal entries are not always repeated. Where two headings read alike, the source gives them in different places. Where no end group is shown, it is not given here.
# How the values were obtained:
# [1] = tested on: trypsin biosynthesis in the midgut of female Neobellieria bullata; experiment: Effect of injected peptide on trypsin biosynthesis in the gut ([3H]DFP assay); type: in vivo
# ecdysteroid titer = experiment: In vivo ecdysteroid titer in larvae; conditions: ten picomole per larva, within 18 hours
# [2] = tested on: ecdysone biosynthesis by ring glands; experiment: In vitro ecdysone biosynthesis by larval ring glands; type: cell-based, Calliphora and Neobellieria
# trypsin-like enzymes = experiment: Gut supernatant incubated with Neb-TMOF: conversion of [3H]DFP to [3H]DIP-trypsin derivatives; type: biochemical, Neobellieria; conditions: gut supernatant incubated 18 hours at 4° C. with Neb-TMOF (FIG. 6)
# [3] = tested on: vitellogenin biosynthesis; experiment: Vitellogenin in hemolymph of injected females (SDS-PAGE); type: in vivo, Neobellieria
# Procedure: Electrophoresis and fluorography. ^3 H!DIP-trypsin-like derivatives of 0.04 gut equivalent and 20 μl sample buffer were run by electrophoresis on 12.5% polyacrylamide gel for 1 hour at 20 mA and for 3 hours at 30 mA (Biorad protean 32 CM) (Laemmli, 1970; Borovsky and Schlein, 1988). Gels were stained for 20 minutes with Coomassie Brilliant Blue R250 and destained overnight with methanol/H2 O/acetic acid (40/50/10), and washed 2 times for 30 minutes in 100 ml dimethylsulfoxide (DMSO). Gels were then incubated for 2 h in 200 ml DMSO containing 44 g 2,5-diphenyloxazole (PPO) (Janssen Chimica, Belgium), rinsed with distilled water for 1 hour, dried for 2 hours in a Biorad slab gel dryer at 80° C. and exposed to a Hyperfilm-MP (Amersham) for 2 days at -70° C. Vitellogenin was separated on a 5-15% SDS gradient gel (Huybrechts and De Loof 1977).
# Four-day-old females were injected with synthetic Neb-TMOF at final concentration of 10^-9 M. Twenty-four hours later, hemolymph was collected and subjected to PAGE. […] The three yolk polypeptides of vitellogenin were affected (FIG. 7). The decrease in vitellogenin in the hemolymph is probably due to the inhibition of trypsin biosynthesis and decrease in protein digestion in the gut. The Neb-TMOF can also affect the fat body, which is the major site of yolk polypeptide biosynthesis in Neobellieria.
compound,measurement,setting,value
"CSCC[C@H](NC(=O)[C@H](Cc1ccccc1)NC(=O)CNC(=O)CNC(=O)[C@@H](N)Cc1ccc(O)cc1)C(=O)O [methionine-enkephalin, H-YGGFM-OH, reference compound]",effect on trypsin-like activity,"[1]; injected with 10^-7 M, control group",without an effect
"NPTNLH [Neb-TMOF, NH2 -Asn-Pro-Thr-Asn-Leu-His-COOH]",reduction of ecdysteroid titer in vivo,ecdysteroid titer,up to a factor of four
same,"PTIH effect, onset and reversibility",[2],immediate and reversible
same,ecdysone biosynthesis inhibited,[2]; 10^-7 M,More than 98%
same,EC50,"[2]; ring glands of Neobellieria and Calliphora, read-out: EC50 of the biosynthesis of ecdysone by ring glands",5 nM
same,EC50,"[2]; ring glands of larvae of Calliphora and Neobellieria, read-out: EC50 of in vitro ecdysone biosynthesis by ring glands",5 nM
same,reduction in [3H]DIP-trypsin derivatives compared with controls,trypsin-like enzymes,No reduction
same,inhibition of trypsin biosynthesis,"[1]; 10^-8 M, injected 4-day-old females",35%
same,reduction in trypsin-like enzymes as compared with controls,"[1]; 10^-9 M injected, liver meal, guts removed 6 h later (FIG. 6)",51%
same,inhibition of trypsin biosynthesis,"[1]; 10^-9 M, injected females",60% and 50%
same,inhibition of trypsin biosynthesis,[1]; 10^-11 M,No inhibition
same,inhibition of trypsin biosynthesis,"[1]; column purification step 1, 1.25 ovary equivalents, P<0.05",44%
same,inhibition of trypsin biosynthesis,"[1]; column purification step 2, 3.7 ovary equivalents, P<0.05",38%
same,inhibition of trypsin biosynthesis,"[1]; column purification step 3, 10 ovary equivalents, P<0.05",43%
same,inhibition of trypsin biosynthesis,"[1]; column purification step 4, 10 ovary equivalents, P<0.05",44%
same,inhibition of trypsin biosynthesis,"[1]; column purification step 5, 38.5 ovary equivalents, P<0.05",20%
same,"inhibition of trypsin biosynthesis in the gut, significance (FIG. 5)","[1]; in vivo, 10^-8 M and 10^-9 M, P<0.05",Significant inhibition
same,effective dose of 50% inhibition (ED50) of trypsin biosynthesis,[1]; physiological concentrations,10^-9 M
same,activity in Neobellieria relative to mosquito TMOF,[1]; versus mosquito TMOF,six fold more active
same,vitellogenin level in hemolymph compared with non-injected controls,"[3]; 10^-9 M injected, 24 hours later, PAGE",low level of vitellogenin
same,egg yolk synthesis after injection,[3]; injection of the hormone,inhibited egg yolk synthesis
